# Laboratory results taken from the supplement of paper PMC10307832.
# Tests used:
# Test in all cases: relative viability (nuclei count vs DMSO), 5 days (fraction); higher = more cells survive
# [1] = compound: CNC(=O)c1cc(Oc2ccc(NC(=O)Nc3ccc(Cl)c(C(F)(F)F)c3)cc2)ccn1 [Sorafenib] + O=C(CCCCCCC(=O)Nc1ccccc1)NO [Vorinostat] (partner 1 µM)
# Procedure, shortened: (§1)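 Lung cancer cell lines were pin-tool dosed in 1536-well plates on the day after seeding, with either a lone drug or a fixed anchor-drug dose plus five library-drug doses (not always all listed) in √10 steps. Nuclei were counted on 4× images after 5 days. Relative viability is the ratio of treated-well to vehicle-well nuclei counts, with each value a median of duplicate plates.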
# [2] = compound: CNC(=O)c1cc(Oc2ccc(NC(=O)Nc3ccc(Cl)c(C(F)(F)F)c3)cc2)ccn1 [Sorafenib] + CC(=O)Nc1cccc(-n2c(=O)n(C3CC3)c(=O)c3c(Nc4ccc(I)cc4F)n(C)c(=O)c(C)c32)c1 [Trametinib] (partner 0.02 µM)
# Procedure, shortened: as §1
# [3] = compound: CNC(=O)c1cc(Oc2ccc(NC(=O)Nc3ccc(Cl)c(C(F)(F)F)c3)cc2)ccn1 [Sorafenib] + CS(=O)(=O)CCNCc1ccc(-c2ccc3ncnc(Nc4ccc(OCc5cccc(F)c5)c(Cl)c4)c3c2)o1 [Lapatinib] (partner 2 µM)
# Procedure, shortened: as §1
# [4] = compound: CNC(=O)c1cc(Oc2ccc(NC(=O)Nc3ccc(Cl)c(C(F)(F)F)c3)cc2)ccn1 [Sorafenib] + Cc1nc(Nc2ncc(C(=O)Nc3c(C)cccc3Cl)s2)cc(N2CCN(CCO)CC2)n1 [Dasatinib] (partner 0.075 µM)
# Procedure, shortened: as §1
# [5] = compound: CNC(=O)c1cc(Oc2ccc(NC(=O)Nc3ccc(Cl)c(C(F)(F)F)c3)cc2)ccn1 [Sorafenib] + COc1cc2c(Oc3ccc(NC(=O)C4(C(=O)Nc5ccc(F)cc5)CC4)cc3F)ccnc2cc1OCCCN1CCOCC1 [Foretinib] (partner 0.25 µM)
# Procedure, shortened: as §1
cell line,measurement,setting,value
LXF-289,relative viability,[1]; first compound 0.08 µM,0.758
same,relative viability,[1]; first compound 0.253 µM,0.757
same,relative viability,[1]; first compound 2.53 µM,0.848
same,relative viability,[1]; first compound 8 µM,0.681
same,relative viability,[2]; first compound 0.08 µM,0.638
same,relative viability,[2]; first compound 2.53 µM,0.617
same,relative viability,[2]; first compound 8 µM,0.513
same,relative viability,[3]; first compound 0.08 µM,0.91
same,relative viability,[3]; first compound 0.253 µM,0.831
same,relative viability,[3]; first compound 2.53 µM,0.938
same,relative viability,[4]; first compound 0.08 µM,0.292
same,relative viability,[4]; first compound 0.253 µM,0.205
same,relative viability,[4]; first compound 2.53 µM,0.187
same,relative viability,[4]; first compound 8 µM,0.196
same,relative viability,[5]; first compound 0.253 µM,0.992
same,relative viability,[5]; first compound 2.53 µM,1.06
same,relative viability,[5]; first compound 8 µM,0.943
NCI-H23,relative viability,[1]; first compound 0.08 µM,0.635
same,relative viability,[1]; first compound 0.253 µM,0.384
same,relative viability,[1]; first compound 2.53 µM,0.678
same,relative viability,[1]; first compound 8 µM,0.547
same,relative viability,[2]; first compound 0.08 µM,0.406
same,relative viability,[2]; first compound 0.253 µM,0.397
same,relative viability,[2]; first compound 2.53 µM,0.288
same,relative viability,[2]; first compound 8 µM,0.225
same,relative viability,[3]; first compound 0.08 µM,1.23
same,relative viability,[3]; first compound 0.253 µM,1.07
same,relative viability,[3]; first compound 2.53 µM,1.02
same,relative viability,[3]; first compound 8 µM,0.908
same,relative viability,[4]; first compound 0.08 µM,0.804
same,relative viability,[4]; first compound 0.253 µM,0.691
same,relative viability,[4]; first compound 2.53 µM,0.646
same,relative viability,[4]; first compound 8 µM,0.709
same,relative viability,[5]; first compound 0.08 µM,1.03
same,relative viability,[5]; first compound 0.253 µM,0.977
same,relative viability,[5]; first compound 2.53 µM,0.833
same,relative viability,[5]; first compound 8 µM,0.871
NCI-H322M,relative viability,[1]; first compound 0.08 µM,1.02
same,relative viability,[1]; first compound 0.253 µM,0.886
same,relative viability,[1]; first compound 2.53 µM,1.02
same,relative viability,[1]; first compound 8 µM,1.17
same,relative viability,[2]; first compound 0.08 µM,0.769
same,relative viability,[2]; first compound 0.253 µM,0.52
same,relative viability,[2]; first compound 2.53 µM,0.455
same,relative viability,[2]; first compound 8 µM,0.481
same,relative viability,[3]; first compound 0.08 µM,0.597
same,relative viability,[3]; first compound 0.253 µM,0.639
same,relative viability,[3]; first compound 2.53 µM,0.727
same,relative viability,[3]; first compound 8 µM,0.665
same,relative viability,[4]; first compound 0.08 µM,0.261
same,relative viability,[4]; first compound 0.253 µM,0.259
same,relative viability,[4]; first compound 2.53 µM,0.319
same,relative viability,[4]; first compound 8 µM,0.302
same,relative viability,[5]; first compound 0.08 µM,1.19
same,relative viability,[5]; first compound 0.253 µM,0.994
same,relative viability,[5]; first compound 2.53 µM,1.14
same,relative viability,[5]; first compound 8 µM,1.05
NCI-H358,relative viability,[1]; first compound 0.08 µM,0.666
same,relative viability,[1]; first compound 0.253 µM,0.712
same,relative viability,[1]; first compound 2.53 µM,0.594
same,relative viability,[1]; first compound 8 µM,0.208
same,relative viability,[2]; first compound 0.08 µM,0.14
same,relative viability,[2]; first compound 0.253 µM,0.143
same,relative viability,[2]; first compound 2.53 µM,0.116
same,relative viability,[2]; first compound 8 µM,0.107
same,relative viability,[3]; first compound 0.08 µM,0.453
same,relative viability,[3]; first compound 0.253 µM,0.45
same,relative viability,[3]; first compound 2.53 µM,0.558
same,relative viability,[3]; first compound 8 µM,0.519
same,relative viability,[4]; first compound 0.08 µM,0.202
same,relative viability,[4]; first compound 0.253 µM,0.186
same,relative viability,[4]; first compound 2.53 µM,0.379
same,relative viability,[4]; first compound 8 µM,0.151
same,relative viability,[5]; first compound 0.08 µM,0.786
same,relative viability,[5]; first compound 0.253 µM,0.723
same,relative viability,[5]; first compound 8 µM,0.489
NCI-H441,relative viability,[1]; first compound 0.08 µM,0.638
same,relative viability,[1]; first compound 0.253 µM,0.756
same,relative viability,[1]; first compound 2.53 µM,0.547
same,relative viability,[1]; first compound 8 µM,0.47
same,relative viability,[2]; first compound 0.08 µM,0.564
same,relative viability,[2]; first compound 0.253 µM,0.408
same,relative viability,[2]; first compound 2.53 µM,0.457
same,relative viability,[2]; first compound 8 µM,0.27
same,relative viability,[4]; first compound 2.53 µM,0.503
same,relative viability,[4]; first compound 8 µM,0.308
same,relative viability,[5]; first compound 0.08 µM,1.11
same,relative viability,[5]; first compound 2.53 µM,0.957
same,relative viability,[5]; first compound 8 µM,0.782
NCI-H522,relative viability,[1]; first compound 0.08 µM,1.02
same,relative viability,[1]; first compound 0.253 µM,0.81
same,relative viability,[1]; first compound 2.53 µM,0.89
same,relative viability,[1]; first compound 8 µM,0.741
same,relative viability,[2]; first compound 0.08 µM,0.789
same,relative viability,[2]; first compound 0.253 µM,0.664
same,relative viability,[2]; first compound 2.53 µM,0.748
same,relative viability,[2]; first compound 8 µM,0.58
same,relative viability,[4]; first compound 0.08 µM,0.904
same,relative viability,[4]; first compound 2.53 µM,0.859
same,relative viability,[4]; first compound 8 µM,0.772
NCI-H1563,relative viability,[3]; first compound 0.08 µM,1.01
same,relative viability,[3]; first compound 0.253 µM,0.92
same,relative viability,[3]; first compound 2.53 µM,0.884
same,relative viability,[3]; first compound 8 µM,0.671
same,relative viability,[4]; first compound 0.08 µM,0.496
same,relative viability,[4]; first compound 0.253 µM,0.469
same,relative viability,[4]; first compound 2.53 µM,0.478
same,relative viability,[4]; first compound 8 µM,0.454
same,relative viability,[5]; first compound 0.08 µM,0.992
same,relative viability,[5]; first compound 0.253 µM,0.929
same,relative viability,[5]; first compound 2.53 µM,0.943
same,relative viability,[5]; first compound 8 µM,0.577
NCI-H1792,relative viability,[2]; first compound 0.08 µM,0.527
same,relative viability,[2]; first compound 0.253 µM,0.461
same,relative viability,[2]; first compound 2.53 µM,0.421
same,relative viability,[2]; first compound 8 µM,0.177
same,relative viability,[3]; first compound 0.08 µM,0.948
same,relative viability,[3]; first compound 0.253 µM,0.811
same,relative viability,[3]; first compound 2.53 µM,0.936
same,relative viability,[3]; first compound 8 µM,0.879
same,relative viability,[4]; first compound 0.08 µM,0.825
same,relative viability,[4]; first compound 0.253 µM,0.742
same,relative viability,[4]; first compound 2.53 µM,0.863
same,relative viability,[4]; first compound 8 µM,0.554
NCI-H2342,relative viability,[1]; first compound 0.08 µM,0.806
same,relative viability,[1]; first compound 0.253 µM,0.628
same,relative viability,[1]; first compound 2.53 µM,0.689
same,relative viability,[1]; first compound 8 µM,0.645
same,relative viability,[2]; first compound 0.08 µM,0.887
same,relative viability,[2]; first compound 0.253 µM,0.749
same,relative viability,[2]; first compound 2.53 µM,0.71
same,relative viability,[2]; first compound 8 µM,0.682
same,relative viability,[4]; first compound 0.08 µM,0.32
same,relative viability,[4]; first compound 0.253 µM,0.27
same,relative viability,[4]; first compound 2.53 µM,0.29
same,relative viability,[4]; first compound 8 µM,0.28
same,relative viability,[5]; first compound 0.08 µM,1
same,relative viability,[5]; first compound 0.253 µM,1
same,relative viability,[5]; first compound 2.53 µM,0.914
same,relative viability,[5]; first compound 8 µM,0.568
SW 900,relative viability,[1]; first compound 0.08 µM,0.71
same,relative viability,[1]; first compound 0.253 µM,0.398
same,relative viability,[1]; first compound 2.53 µM,0.72
same,relative viability,[1]; first compound 8 µM,0.618
same,relative viability,[2]; first compound 0.253 µM,0.792
same,relative viability,[2]; first compound 2.53 µM,0.934
same,relative viability,[2]; first compound 8 µM,0.719
same,relative viability,[4]; first compound 0.08 µM,0.544
same,relative viability,[4]; first compound 0.253 µM,0.481
same,relative viability,[4]; first compound 2.53 µM,0.545
same,relative viability,[4]; first compound 8 µM,0.343
same,relative viability,[5]; first compound 0.08 µM,1.2
same,relative viability,[5]; first compound 0.253 µM,0.888
same,relative viability,[5]; first compound 2.53 µM,0.782
same,relative viability,[5]; first compound 8 µM,0.604
